{"source": "ChEMBL document CHEMBL5241106", "about": "“Discovery of a Dual Tubulin and Poly(ADP-Ribose) Polymerase-1 Inhibitor by Structure-Based Pharmacophore Modeling, Virtual Screening, Molecular Docking, and Biological Evaluation” (J Med Chem, 2021)", "key": {"[1]": {"assay": "Toxicity in BALB/c mouse xenografted with human MDA-MB-231 cells assessed as change in lung morphological changes at 1 to 5 mg/kg, ip administered every 4 days for 7 times measured at 48 hrs post-last administration by H and E staining based fluorescence microscopic analysis", "format": "organism-based", "settings": "in vivo, 720 h, dose 1-5 mg/kg, time 30 day"}, "MDA-MB-231 [2]": {"tested_on": "MDA-MB-231", "assay": "Induction of apoptosis in human MDA-MB-231 cells assessed as necrotic cells at 2.5 uM incubated for 48 hrs by Annexin V-FITC/PI staining based flow cytometry (reference value: 1.86%)", "format": "functional"}, "[3]": {"target": "Serine/threonine-protein kinase pim-1 (Homo sapiens, UniProt P11309)", "sequence (P11309 whole entry)": "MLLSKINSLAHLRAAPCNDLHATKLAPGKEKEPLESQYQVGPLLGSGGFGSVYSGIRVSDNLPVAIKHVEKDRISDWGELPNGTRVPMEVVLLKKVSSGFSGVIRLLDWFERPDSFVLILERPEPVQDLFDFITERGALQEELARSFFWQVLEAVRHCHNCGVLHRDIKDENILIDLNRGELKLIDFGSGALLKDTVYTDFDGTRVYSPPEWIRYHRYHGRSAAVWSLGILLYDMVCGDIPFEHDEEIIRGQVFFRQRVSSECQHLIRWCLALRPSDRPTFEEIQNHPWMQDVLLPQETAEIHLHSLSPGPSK", "assay": "Inhibition of PIM-1 (unknown origin)"}, "[4]": {"target": "Poly [ADP-ribose] polymerase 1 (Homo sapiens, UniProt P09874)", "sequence (P09874 whole entry)": "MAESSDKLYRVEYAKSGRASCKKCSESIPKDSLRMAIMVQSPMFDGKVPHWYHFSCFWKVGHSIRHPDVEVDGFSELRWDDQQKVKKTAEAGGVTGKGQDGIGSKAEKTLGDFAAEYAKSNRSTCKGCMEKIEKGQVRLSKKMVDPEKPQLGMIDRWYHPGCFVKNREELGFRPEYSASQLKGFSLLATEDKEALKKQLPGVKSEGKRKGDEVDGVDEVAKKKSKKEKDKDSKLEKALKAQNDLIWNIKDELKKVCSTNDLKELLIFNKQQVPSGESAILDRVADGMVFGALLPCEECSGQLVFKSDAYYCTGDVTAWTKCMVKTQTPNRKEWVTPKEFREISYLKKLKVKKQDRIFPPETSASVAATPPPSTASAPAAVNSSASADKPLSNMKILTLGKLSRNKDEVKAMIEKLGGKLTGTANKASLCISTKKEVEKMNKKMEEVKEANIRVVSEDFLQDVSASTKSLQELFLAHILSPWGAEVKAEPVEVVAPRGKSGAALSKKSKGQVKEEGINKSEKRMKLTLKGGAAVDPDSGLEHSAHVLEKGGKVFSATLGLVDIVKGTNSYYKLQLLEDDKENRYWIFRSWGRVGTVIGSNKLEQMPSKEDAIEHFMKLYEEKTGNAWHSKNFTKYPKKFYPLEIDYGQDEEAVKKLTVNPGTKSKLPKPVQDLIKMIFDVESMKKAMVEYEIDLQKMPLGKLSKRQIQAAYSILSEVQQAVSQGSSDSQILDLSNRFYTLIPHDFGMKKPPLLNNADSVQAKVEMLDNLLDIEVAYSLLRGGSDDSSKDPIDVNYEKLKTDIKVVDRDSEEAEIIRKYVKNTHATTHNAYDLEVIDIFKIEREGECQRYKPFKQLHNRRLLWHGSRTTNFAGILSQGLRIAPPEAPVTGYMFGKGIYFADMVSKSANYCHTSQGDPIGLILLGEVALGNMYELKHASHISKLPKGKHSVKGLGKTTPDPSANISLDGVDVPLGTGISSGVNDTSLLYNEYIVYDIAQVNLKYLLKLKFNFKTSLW", "assay": "Inhibition of PARP-1 in human MDA-MB-231 cells assessed as induction of double strand DNA breaks by measuring increase in gammaH2AX level at 2.5 to 12.5 uM incubated for 48 hrs by western blotting analysis", "format": "cell-based", "settings": "dose 2.5-12.5 µM"}, "MDA-MB-231 [5]": {"tested_on": "MDA-MB-231", "assay": "Cytotoxicity against human MDA-MB-231 cells assessed as inhibition of cell growth incubated for 72 hrs by MTT assay", "format": "functional, cell-based"}, "SK-OV-3": {"tested_on": "SK-OV-3", "assay": "Cytotoxicity against human SK-OV-3 cells assessed as inhibition of cell growth incubated for 72 hrs by MTT assay", "format": "functional, cell-based", "settings": "SK-OV-3, 72 h"}, "[6]": {"assay": "Toxicity in BALB/c mouse xenografted with human MDA-MB-231 cells assessed as change in spleen morphological changes at 1 to 5 mg/kg, ip administered every 4 days for 7 times measured at 48 hrs post-last administration by H and E staining based fluorescence microscopic analysis", "format": "organism-based", "settings": "in vivo, 720 h, dose 1-5 mg/kg, time 30 day"}, "[7]": {"assay": "Toxicity in BALB/c mouse xenografted with human MDA-MB-231 cells assessed as change in liver morphological changes at 1 to 5 mg/kg, ip administered every 4 days for 7 times measured at 48 hrs post-last administration by H and E staining based fluorescence microscopic analysis", "format": "organism-based", "settings": "in vivo, 720 h, dose 1-5 mg/kg, time 30 day"}, "MDA-MB-231 [8]": {"tested_on": "MDA-MB-231", "assay": "Inhibition of colony formation in human MDA-MB-231 cells at 2.5 uM measured after 10 days by crystal violet staining based analysis", "format": "functional", "settings": "MDA-MB-231, 240 h, time 10 day"}, "Tubulin (Homo sapiens) [9]": {"target": "T1, Tubulin (Homo sapiens) (UniProt P68371+Q9H4B7+P0DPH7+P68366+Q13509+Q71U36+P04350+Q3ZCM7+P07437+P68363+Q9BQE3+Q6PEY2+Q13885+Q9BVA1+Q9BUF5)", "assay": "Inhibition of tubulin polymerization (unknown origin) at 10 uM by turbidimetric analysis", "format": "protein-complex assay"}, "[10]": {"assay": "Hepatotoxicity in BALB/c mouse xenografted with human MDA-MB-231 cells assessed as effect on blood ALT level at 1 to 5 mg/kg, ip administered every 4 days for 7 times measured at 48 hrs post-last administration", "format": "toxicity, organism-based", "settings": "in vivo, 720 h, dose 1-5 mg/kg, time 30 day"}, "MCF-10A [11]": {"tested_on": "MCF-10A", "assay": "Induction of apoptosis in human MCF-10A cells at 0.5 to 12.5 uM incubated for 48 hrs by Annexin V-FITC/PI staining based flow cytometry", "format": "toxicity, cell-based", "settings": "dose 0.5-12.5 µM"}, "[12]": {"target": "Phosphatidylinositol 4,5-bisphosphate 3-kinase catalytic subunit gamma isoform (Homo sapiens, UniProt P48736)", "sequence (P48736 whole entry, canonical isoform)": "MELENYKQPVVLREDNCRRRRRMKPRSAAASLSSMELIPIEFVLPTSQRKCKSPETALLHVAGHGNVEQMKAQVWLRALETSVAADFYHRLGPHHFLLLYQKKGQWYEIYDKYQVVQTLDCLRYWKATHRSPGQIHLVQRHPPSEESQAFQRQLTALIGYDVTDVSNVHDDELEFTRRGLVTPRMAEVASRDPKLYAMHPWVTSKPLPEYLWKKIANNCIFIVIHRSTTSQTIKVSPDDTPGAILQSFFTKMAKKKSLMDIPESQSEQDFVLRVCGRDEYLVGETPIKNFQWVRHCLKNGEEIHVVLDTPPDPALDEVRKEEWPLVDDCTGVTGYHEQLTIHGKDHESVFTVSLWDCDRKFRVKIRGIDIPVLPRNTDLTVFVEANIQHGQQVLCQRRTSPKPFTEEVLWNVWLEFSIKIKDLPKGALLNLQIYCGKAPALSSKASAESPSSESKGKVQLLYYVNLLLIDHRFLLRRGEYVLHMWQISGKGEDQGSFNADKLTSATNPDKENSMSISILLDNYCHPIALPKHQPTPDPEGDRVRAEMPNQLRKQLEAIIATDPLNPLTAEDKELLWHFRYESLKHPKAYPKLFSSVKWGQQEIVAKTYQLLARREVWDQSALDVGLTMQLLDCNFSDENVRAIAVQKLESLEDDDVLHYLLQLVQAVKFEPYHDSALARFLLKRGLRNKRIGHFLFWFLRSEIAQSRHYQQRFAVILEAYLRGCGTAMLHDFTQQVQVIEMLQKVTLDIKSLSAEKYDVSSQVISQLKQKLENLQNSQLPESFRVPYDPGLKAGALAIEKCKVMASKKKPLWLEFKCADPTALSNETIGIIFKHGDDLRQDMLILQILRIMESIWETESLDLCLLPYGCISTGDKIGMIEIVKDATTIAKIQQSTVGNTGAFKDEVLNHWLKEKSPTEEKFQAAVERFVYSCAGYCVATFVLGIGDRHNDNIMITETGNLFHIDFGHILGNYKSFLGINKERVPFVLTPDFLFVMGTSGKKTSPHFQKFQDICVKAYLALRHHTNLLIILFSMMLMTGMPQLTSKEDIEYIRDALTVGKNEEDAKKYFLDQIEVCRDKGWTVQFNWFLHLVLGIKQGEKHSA", "assay": "Inhibition of PI3KCG (unknown origin)"}, "[13]": {"assay": "Selectivity index, ratio of IC50 for cytotoxicity against human MCF-10A cells to IC50 for cytotoxicity against human MDA-MB-231 cells", "format": "toxicity, cell-based", "settings": "MCF-10A cells versus MDA-MB-231 cells, read-out: Ratio IC50"}, "MDA-MB-231 [14]": {"tested_on": "MDA-MB-231", "assay": "Induction of apoptosis in human MDA-MB-231 cells assessed as early apoptotic cells at 0.5 uM incubated for 48 hrs by Annexin V-FITC/PI staining based flow cytometry (reference value: 1.71%)", "format": "functional"}, "[15]": {"assay": "Renal toxicity in BALB/c mouse xenografted with human MDA-MB-231 cells assessed as effect on blood creatinine level at 1 to 5 mg/kg, ip administered every 4 days for 7 times measured at 48 hrs post-last administration", "format": "organism-based", "settings": "in vivo, 720 h, dose 1-5 mg/kg, time 30 day"}, "[16]": {"assay": "Toxicity in BALB/c mouse xenografted with human MDA-MB-231 cells assessed as increase in body weight at 1 to 5 mg/kg, ip administered every 4 days for 7 times", "format": "organism-based", "settings": "in vivo, 672 h, dose 1-5 mg/kg, time 28 day"}, "HeLa": {"tested_on": "HeLa", "assay": "Cytotoxicity against human HeLa cells assessed as inhibition of cell growth incubated for 72 hrs by MTT assay", "format": "functional, cell-based"}, "MDA-MB-231 [17]": {"tested_on": "MDA-MB-231", "assay": "Induction of apoptosis in human MDA-MB-231 cells assessed as late apoptotic cells at 2.5 uM incubated for 48 hrs by Annexin V-FITC/PI staining based flow cytometry (reference value: 5.06%)", "format": "functional"}, "MDA-MB-231 [18]": {"tested_on": "MDA-MB-231", "assay": "Induction of cell cycle arrest in human MDA-MB-231 cells assessed as increase in p-cdc2 expression at 0.5 to 12.5 uM incubated for 48 hrs by Western blot analysis", "format": "functional, cell-based", "settings": "dose 0.5-12.5 µM"}, "[19]": {"assay": "Toxicity in BALB/c mouse xenografted with human MDA-MB-231 cells assessed as effect on WBC count at 1 to 5 mg/kg, ip administered every 4 days for 7 times measured at 48 hrs post-last administration", "format": "organism-based", "settings": "in vivo, 720 h, dose 1-5 mg/kg, time 30 day"}, "MDA-MB-231 [20]": {"tested_on": "MDA-MB-231", "assay": "Induction of apoptosis in human MDA-MB-231 cells assessed as viable cells at 12.5 uM incubated for 48 hrs by Annexin V-FITC/PI staining based flow cytometry (reference value: 91.4%)", "format": "functional", "settings": "read-out: Activity"}, "Tubulin (Homo sapiens) [21]": {"target": "T1, Tubulin (Homo sapiens)", "assay": "Inhibition of tubulin polymerization in human MDA-MB-231 cells assessed as blurred or disappeared nucleus and destruction of normal microtubule network at 12.5 uM incubated for 48 hrs by immunofluorescence assay", "format": "cell-based"}, "[22]": {"assay": "Toxicity in BALB/c mouse xenografted with human MDA-MB-231 cells assessed as effect on platelet count at 1 to 5 mg/kg, ip administered every 4 days for 7 times measured at 48 hrs post-last administration", "format": "organism-based", "settings": "in vivo, 720 h, dose 1-5 mg/kg, time 30 day"}, "MDA-MB-231 [23]": {"tested_on": "MDA-MB-231", "assay": "Induction of apoptosis in human MDA-MB-231 cells assessed as increase in cleaved caspase-3 level at 0.5 to 12.5 uM incubated for 48 hrs by western blot analysis", "format": "functional, cell-based", "settings": "dose 0.5-12.5 µM"}, "MDA-MB-231 [24]": {"tested_on": "MDA-MB-231", "assay": "Induction of apoptosis in human MDA-MB-231 cells assessed as late apoptotic cells at 0.5 uM incubated for 48 hrs by Annexin V-FITC/PI staining based flow cytometry (reference value: 5.06%)", "format": "functional"}, "Tubulin": {"target": "Tubulin", "assay": "Inhibition of tubulin polymerization (unknown origin) by turbidimetric analysis", "format": "protein-complex assay, Homo sapiens", "settings": "read-out: IC50"}, "MCF-10A [25]": {"tested_on": "MCF-10A", "assay": "Induction of cell cycle arrest in human MCF-10A cells at 0.5 to 12.5 uM incubated for 48 hrs by propidium iodide staining based flow cytometry", "format": "toxicity", "settings": "dose 0.5-12.5 µM"}, "[26]": {"assay": "Toxicity in BALB/c mouse xenografted with human MDA-MB-231 cells assessed as effect on RBC count at 1 to 5 mg/kg, ip administered every 4 days for 7 times measured at 48 hrs post-last administration", "format": "organism-based, Erythrocyte", "settings": "in vivo, 720 h, dose 1-5 mg/kg, time 30 day"}, "MDA-MB-231 [27]": {"tested_on": "MDA-MB-231", "assay": "Induction of apoptosis in human MDA-MB-231 cells assessed as late apoptotic cells at 12.5 uM incubated for 48 hrs by Annexin V-FITC/PI staining based flow cytometry (reference value: 5.06%)", "format": "functional"}, "MDA-MB-231 [28]": {"tested_on": "MDA-MB-231", "assay": "Induction of apoptosis in human MDA-MB-231 cells assessed as necrotic cells at 0.5 uM incubated for 48 hrs by Annexin V-FITC/PI staining based flow cytometry (reference value: 1.86%)", "format": "functional"}}, "note": "Active and inactive are the calls of the source. No cut-off for these calls is given here.", "data": [{"smiles": "O=c1[nH]c(/C=C/c2cccc(F)c2)nc2ccccc12", "values": [{"measurement": "Activity", "setting": "[1]", "result": "Non-Toxic"}, {"measurement": "Activity", "setting": "MDA-MB-231 [2]", "result": 1, "unit": "%"}, {"measurement": "IC50", "setting": "[3]", "result": "> 10000", "unit": "nM"}, {"measurement": "inhibition", "setting": "[4]", "result": "Active"}, {"measurement": "Activity", "setting": "MDA-MB-231 [5]", "result": "Active"}, {"measurement": "IC50", "setting": "SK-OV-3", "result": 1700, "unit": "nM"}, {"measurement": "Activity", "setting": "[6]", "result": "Non-Toxic"}, {"measurement": "Activity", "setting": "[7]", "result": "Non-Toxic"}, {"measurement": "inhibition at 2.5 µM", "setting": "MDA-MB-231 [8]", "result": 100, "unit": "%"}, {"measurement": "inhibition", "setting": "Tubulin (Homo sapiens) [9]", "result": 91, "unit": "%"}, {"measurement": "Activity", "setting": "[10]", "result": "Non-Toxic"}, {"measurement": "Activity", "setting": "MCF-10A [11]", "result": "Non-Toxic"}, {"measurement": "IC50", "setting": "[12]", "result": "> 10000", "unit": "nM"}, {"measurement": "selectivity ratio", "setting": "[13]", "result": "> 14"}, {"measurement": "Activity", "setting": "MDA-MB-231 [14]", "result": 2.16, "unit": "%"}, {"measurement": "Activity", "setting": "[15]", "result": "Non-Toxic"}, {"measurement": "Activity", "setting": "[16]", "result": "Toxic"}, {"measurement": "IC50", "setting": "HeLa", "result": 1500, "unit": "nM"}, {"measurement": "Activity", "setting": "MDA-MB-231 [17]", "result": 6.62, "unit": "%"}, {"measurement": "Activity", "setting": "MDA-MB-231 [18]", "result": "Active"}, {"measurement": "Activity", "setting": "[19]", "result": "Non-Toxic"}, {"measurement": "viability at 12.5 µM", "setting": "MDA-MB-231 [20]", "result": 83.4, "unit": "%"}, {"measurement": "inhibition", "setting": "Tubulin (Homo sapiens) [21]", "result": "Active"}, {"measurement": "Activity", "setting": "[22]", "result": "Non-Toxic"}, {"measurement": "Activity", "setting": "MDA-MB-231 [23]", "result": "Active"}, {"measurement": "Activity", "setting": "MDA-MB-231 [24]", "result": 6.39, "unit": "%"}, {"measurement": "IC50", "setting": "Tubulin", "result": 940, "unit": "nM"}, {"measurement": "Activity", "setting": "MCF-10A [25]", "result": "Non-Toxic"}, {"measurement": "Activity", "setting": "[26]", "result": "Non-Toxic"}, {"measurement": "Activity", "setting": "MDA-MB-231 [27]", "result": 8.97, "unit": "%"}, {"measurement": "Activity", "setting": "MDA-MB-231 [28]", "result": 0.88, "unit": "%"}]}]}
